How the values were obtained:
[1] = test system: HCV replicon in human hepatoma Huh-7 cell line; experiment: Anti-HCV replicon assay, EC50 (luciferase luminescence); assay type: cell-based; conditions: Hepatitis C virus, Huh-7, 72 h
Procedure, shortened: (§1)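 Cytotoxicity (CC50) read by CellTiter-Glo luminescence after 10 min, and antiviral EC50 by luciferase signal after 30 min lysis with substrate, both at room temperature. Preceding step: 3-day exposure of 6000 Huh-7 HCV replicon cells per well to compound dilution series at 37° C, 5% CO2, in 0.5% DMSO.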

[2] = CC50 assay (CellTiter-Glo) in Huh-7 HCV replicon cells; assay type: cell-based; conditions: human, Table 2, 3 days incubation
Procedure, shortened: as §1

Q: Which results are given for `COc1ccc(-c2ccc3nc(NCc4cccc(F)c4)nc(NC4(C(F)(F)F)CC4)c3n2)cc1S(C)(=O)=O` [Example 105, N^2-(3-fluorobenzyl)-6-(4-methoxy-3-(methylsulfonyl)phenyl)-N^4-(1-(trifluoromethyl)cyclopropyl)pyrido[3,2-d] pyrimidine-2,4-diamine]?
A: EC50 [1]: < 100 nM; CC50 at 3 days [2]: > 10000 nM

Q: For `C[C@@H](Nc1nc(NC2(C(F)(F)F)CC2)c2nc(-c3cnc(NC4CC4)c(F)c3)ccc2n1)c1ccc(-n2cncn2)cc1` [Example 131, N^2-((R)-1-(4-(1H-1,2,4-triazol-1-yl)phenyl)ethyl)-6-(6-(cyclopropylamino)-5-fluoropyridin-3-yl)-N^4-(1-(trifluoromethyl)cyclopropyl) pyrido[3,2-d]pyrimidine-2,4-diamine], which EC50 [1] is on record?
A: The EC50 was 100 to 250 nM.

Q: And the CC50 at 3 days [2]?
A: The CC50 at 3 days was 1000 to 10000 nM.

Q: For `CC(C)Oc1ccc(-c2ccc3nc(NCc4ccc(-n5cncn5)cc4)nc(NCC(F)(F)F)c3n2)cn1` [Example 240, N^2-(4-(1H-1,2,4-triazol-1-yl)benzyl)-6-(6-isopropoxy-pyridin-3-yl)-N^4-(2,2,2-trifluoroethyl)pyrido[3,2-d] pyrimidine-2,4-diamine], which EC50 [1] is on record?
A: Its EC50 is < 100 nM.

Q: What about the CC50 at 3 days [2] of the same compound?
A: The CC50 at 3 days was > 10000 nM.

Q: Which results are given for `N#Cc1cc(F)ccc1-c1ccc2nc(NCc3cc(Cl)cc(S(N)(=O)=O)c3)nc(NC3(C(F)(F)F)CC3)c2n1` [Example 100, 3-chloro-5-((6-(2-cyano-4-fluorophenyl)-4-(1-(trifluoromethyl)cyclopropyl-amino)pyrido[3,2-d]pyrimidin-2-ylamino)methyl)benzene-sulfonamide]?
A: EC50 [1]: < 100 nM; CC50 at 3 days [2]: 1000 to 10000 nM

Q: Which EC50 [1] does the source give for `C[C@@H](Nc1nc(NC2(C(F)(F)F)CC2)c2nc(-c3ccc(F)cc3)ccc2n1)c1ccc(S(N)(=O)=O)cc1` [Example 24, (R)-4-{1-[6-(4-fluorophenyl)-4-(1-trifluoromethyl-cyclopropylamino)-pyrido[3,2-d]pyrimidin-2-ylamino]-ethyl}-benzenesulfonamide] here?
A: The EC50 was < 100 nM.

Q: What about the CC50 at 3 days [2] of the same compound?
A: Its CC50 at 3 days is > 10000 nM.

Q: Which EC50 [1] does the source give for `CS(=O)(=O)c1cccc(-c2ccc3nc(NCCO)nc(NCC(F)(F)F)c3n2)c1` [Example 162, 2-(6-(3-(methylsulfonyl)phenyl)-4-(2,2,2-trifluoroethyl-amino)pyrido[3,2-d]pyrimidin-2-ylamino)ethanol] here?
A: Its EC50 is 250 to 2000 nM.

Q: What about the CC50 at 3 days [2] of the same compound?
A: Its CC50 at 3 days is > 10000 nM.

Q: With `C[C@H](Cn1cncn1)Nc1nc(NCC(F)(F)F)c2nc(C#CC3CC3)ccc2n1` [Example 281, (R)-N^2-(1-(1H-1,2,4-triazol-1-yl)propan-2-yl)-6-(2-cyclopropyl-ethynyl)-N^4-(2,2,2-trifluoro-ethyl)pyrido[3,2-d]pyrimidine-2,4-diamine] as the compound, how does the EC50 [1] read?
A: The EC50 was 250 to 2000 nM.

Q: What about the CC50 at 3 days [2] of the same compound?
A: The CC50 at 3 days was > 10000 nM.

Q: With `Cc1ccc(-c2ccc3nc(NCc4ccc(-n5cncn5)cc4)nc(NC4(C(F)(F)F)CC4)c3n2)cc1S(N)(=O)=O` [Example 42, 5-(2-(4-(1H-1,2,4-triazol-1-yl)benzylamino)-4-(1-(trifluoromethyl)cyclopropyl-amino)pyrido[3,2-d]pyrimidin-6-yl)-2-methylbenzene-sulfonamide] as the compound, how does the EC50 [1] read?
A: Its EC50 is < 100 nM.

Q: What about the CC50 at 3 days [2] of the same compound?
A: Its CC50 at 3 days is 1000 to 10000 nM.

Q: What does the source list for `CC(C)Oc1nc(NCc2ccc(-n3cncn3)cc2)nc2ccc(-c3cccc(S(C)(=O)=O)c3)nc12` [Example 198, N-(4-(1H-1,2,4-triazol-1-yl)benzyl)-4-isopropoxy-6-(3-(methylsulfonyl)phenyl)pyrido [3,2-d]pyrimidin-2-amine]?
A: EC50 [1]: < 100 nM; CC50 at 3 days [2]: > 10000 nM

Q: Which EC50 [1] does the source give for `COc1ccc(-c2ccc3nc(NCc4cccc(-n5cccn5)c4)nc(NCC(F)(F)F)c3n2)cc1S(C)(=O)=O` [Example 140, N^2-(3-(1H-pyrazol-1-yl)benzyl)-6-(4-methoxy-3-(methylsulfonyl)phenyl)-N^4-(2,2,2-trifluoroethyl)pyrido [3,2-d]pyrimidine-2,4-diamine] here?
A: The EC50 was < 100 nM.

Q: And the CC50 at 3 days [2]?
A: Its CC50 at 3 days is 1000 to 10000 nM.

Q: Which results are given for `NS(=O)(=O)c1cc(CNc2nc(NC3(C(F)(F)F)CC3)c3nc(-c4ccc(F)cc4)ccc3n2)ccc1Cl` [Example 88, 2-chloro-5-((6-(4-fluorophenyl)-4-(1-(trifluoromethyl)cyclopropyl-amino)pyrido[3,2-d]pyrimidin-2-ylamino)methyl)benzene-sulfonamide]?
A: EC50 [1]: 100 to 250 nM; CC50 at 3 days [2]: > 10000 nM

Q: Which EC50 [1] does the source give for `CCS(=O)(=O)c1cc(-c2ccc3nc(NCc4ccc(S(N)(=O)=O)cc4)nc(NCC(F)(F)F)c3n2)ccc1OC` [Example 149, 4-((6-(3-(ethylsulfonyl)-4-methoxyphenyl)-4-(2,2,2-trifluoroethylamino)pyrido[3,2-d]pyrimidin-2-ylamino)methyl) benzenesulfonamide] here?
A: The EC50 was < 100 nM.

Q: What about the CC50 at 3 days [2] of the same compound?
A: Its CC50 at 3 days is > 10000 nM.

Q: Which results are given for `FC(F)(F)CNc1nc(NCc2ccc(-n3cncn3)cc2)nc2ccc(-c3ccc(OC4CCC4)nc3)nc12` [Example 250, N^2-(4-(1H-1,2,4-triazol-1-yl)benzyl)-6-(6-cyclobutoxy-pyridin-3-yl)-N^4-(2,2,2-trifluoroethyl)pyrido[3,2-d] pyrimidine-2,4-diamine]?
A: EC50 [1]: < 100 nM; CC50 at 3 days [2]: 1000 to 10000 nM

Q: What does the source list for `C[C@H](Cn1cncn1)Nc1nc(NCC(F)(F)F)c2nc(-c3ccc(OC4CC4)nc3)ccc2n1` [Example 258, N^2-((R)-1-(1H-1,2,4-triazol-1-yl)propan-2-yl)-6-(6-cyclo-propoxypyridin-3-yl)-N^4-(2,2,2-trifluoroethyl)pyrido[3,2-d] pyrimidine-2,4-diamine]?
A: EC50 [1]: < 100 nM; CC50 at 3 days [2]: > 10000 nM

Q: Which results are given for `CS(=O)(=O)c1cc(-c2ccc3nc(NCc4ccc(-n5cncn5)cc4)nc(O[C@@H]4C[C@@H]5C[C@@H]5C4)c3n2)ccc1OC(F)F` [Example 195, N-(4-(1H-1,2,4-triazol-1-yl)benzyl)-4-((1S,3r,5R)-bicyclo[3.1.0]hexan-3-yloxy)-6-(4-(difluoromethoxy)-3-(methylsulfonyl)phenyl)pyrido [3,2-d]pyrimidin-2-amine]?
A: EC50 [1]: < 100 nM; CC50 at 3 days [2]: 1000 to 10000 nM

Q: With `CC1(Oc2nc(NCc3cc(Cl)cc(S(N)(=O)=O)c3)nc3ccc(C#CC4CC4)nc23)CC1` [Example 301, 3-chloro-5-((6-(2-cyclopropyl-ethynyl)-4-(1-methylcyclo-propoxy)pyrido[3,2-d]pyrimidin-2-ylamino)methyl) benzenesulfonamide] as the compound, how does the EC50 [1] read?
A: Its EC50 is < 100 nM.

Q: And the CC50 at 3 days [2]?
A: Its CC50 at 3 days is > 10000 nM.

Q: What does the source list for `CCOc1ccc(-c2ccc3nc(NCc4ccc(-n5cncn5)cc4)nc(NC4(C(F)(F)F)CC4)c3n2)cn1` [Example 52, N^2-(4-(1H-1,2,4-triazol-1-yl)benzyl)-6-(6-ethoxypyridin-3-yl)-N^4-(1-(trifluoromethyl)cyclopropyl)pyrido[3,2-d] pyrimidine-2,4-diamine]?
A: EC50 [1]: < 100 nM; CC50 at 3 days [2]: 1000 to 10000 nM

Q: Which results are given for `CC#Cc1ccc2nc(N[C@H](C)c3ccc(S(N)(=O)=O)cc3)nc(O[C@@H]3C[C@@H]4C[C@@H]4C3)c2n1` [Example 313, 4-((R)-1-(4-((1S,3r,5R)-bicyclo[3.1.0]hexan-3-yloxy)-6-(prop-1-ynyl)pyrido[3,2-d]pyrimidin-2-ylamino)ethyl) benzenesulfonamide]?
A: EC50 [1]: < 100 nM; CC50 at 3 days [2]: > 10000 nM

Q: With `CC#Cc1ccc2nc(N[C@H](C)c3ccc(S(N)(=O)=O)cc3)nc(OC3(C)CC3)c2n1` [Example 302, (R)-4-(1-(4-(1-methylcyclo-propoxy)-6-(prop-1-ynyl)pyrido[3,2-d]pyrimidin-2-ylamino)ethyl)benzene-sulfonamide] as the compound, how does the EC50 [1] read?
A: The EC50 was < 100 nM.

Q: What about the CC50 at 3 days [2] of the same compound?
A: The CC50 at 3 days was > 10000 nM.

Q: For `CC#Cc1ccc2nc(N[C@H](C)c3ccc(S(N)(=O)=O)cc3)nc(OC3CC3)c2n1` [Example 309, (R)-4-(1-(4-cyclopropoxy-6-(prop-1-ynyl)pyrido[3,2-d]pyrimidin-2-ylamino)ethyl) benzenesulfonamide], which EC50 [1] is on record?
A: The EC50 was < 100 nM.

Q: And the CC50 at 3 days [2]?
A: The CC50 at 3 days was > 10000 nM.

Q: What does the source list for `CCOc1nc(NCc2ccc(-n3cncn3)cc2)nc2ccc(-c3cccc(S(C)(=O)=O)c3)nc12` [Example 190, N-(4-(1H-1,2,4-triazol-1-yl)benzyl)-4-ethoxy-6-(3-(methylsulfonyl)phenyl)pyrido [3,2-d]pyrimidin-2-amine]?
A: EC50 [1]: < 100 nM; CC50 at 3 days [2]: > 10000 nM

Q: For `C[C@@H](Nc1nc(NCC(F)(F)F)c2nc(-c3cncc(S(C)(=O)=O)c3)ccc2n1)c1ccc(S(N)(=O)=O)cc1` [Example 156, 4-((R)-1-(6-(5-(methylsulfonyl)pyridin-3-yl)-4-(2,2,2-trifluoroethylamino)pyrido [3,2-d]pyrimidin-2-ylamino)ethyl)benzenesulfonamide], which EC50 [1] is on record?
A: The EC50 was 250 to 2000 nM.

Q: What about the CC50 at 3 days [2] of the same compound?
A: The CC50 at 3 days was > 10000 nM.

Q: Which results are given for `COCc1ccc(-c2ccc3nc(NCc4ccc(S(N)(=O)=O)cc4)nc(NCC(F)(F)F)c3n2)cc1S(C)(=O)=O` [Example 146, 4-((6-(4-(methoxymethyl)-3-(methylsulfonyl)phenyl)-4-(2,2,2-trifluoroethylamino)pyrido[3,2-d]pyrimidin-2-ylamino)methyl)benzene-sulfonamide]?
A: EC50 [1]: < 100 nM; CC50 at 3 days [2]: > 10000 nM

Q: Which EC50 [1] does the source give for `CS(=O)(=O)c1cccc(-c2ccc3nc(NCc4ccc(-n5ccnc5)cc4)nc(NCC(F)(F)F)c3n2)c1` [Example 193, N^2-(4-(1H-imidazol-1-yl)benzyl)-6-(3-(methylsulfonyl)phenyl)-N^4-(2,2,2-trifluoroethyl) pyrido[3,2-d]pyrimidine-2,4-diamine] here?
A: Its EC50 is < 100 nM.

Q: What about the CC50 at 3 days [2] of the same compound?
A: Its CC50 at 3 days is > 10000 nM.

Q: Which EC50 [1] does the source give for `CC(C)(O)CNc1nc(NCC(F)(F)F)c2nc(-c3cccc(S(C)(=O)=O)c3)ccc2n1` [Example 159, 2-methyl-1-(6-(3-(methylsulfonyl)phenyl)-4-(2,2,2-trifluoroethylamino)pyrido[3,2-d]pyrimidin-2-ylamino)propan-2-ol] here?
A: Its EC50 is 100 to 250 nM.

Q: And the CC50 at 3 days [2]?
A: The CC50 at 3 days was > 10000 nM.

Q: Which EC50 [1] does the source give for `NS(=O)(=O)c1ccc(CNc2nc(NC3(C(F)(F)F)CC3)c3nc(-c4ccc(N5CCCS5(=O)=O)cc4)ccc3n2)cc1` [Example 130, 4-((6-(4-(1,1-dioxo-isothiazolidin-2-yl)phenyl)-4-(1-(trifluoromethyl)cyclopropyl-amino)pyrido[3,2-d]pyrimidin-2-ylamino)methyl)benzene-sulfonamide] here?
A: Its EC50 is < 100 nM.

Q: And the CC50 at 3 days [2]?
A: Its CC50 at 3 days is < 1000 nM.

— patent US8536187B2 (Gilead Sciences, Inc., priority 2008, dated 2013)
